Results: ChEMBL document CHEMBL1201862, “PubChem BioAssay data set” (2004)
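Dose response: 5 concentrations. Exposure: 48 h. Format: 96-well plates. Endpoint: linear interpolation; highest concentration if not reached. GI50 is the concentration that inhibits growth by half.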 The source made the active and inactive calls. Rule as the data show it: active = GI50 up to about 1.1 µM and inactive = higher.

How the values were obtained:
Experiment in all cases: NCI tumour cell line growth inhibition, 48 h
[1] = test system: A549
[2] = test system: CAKI-1
[3] = test system: COLO 205
[4] = test system: HT-29
[5] = test system: IGROV-1
[6] = test system: MOLT-4
[7] = test system: NCI-H23
[8] = test system: NCI-H522
[9] = test system: OVCAR-5
[10] = test system: RPMI-8226
[11] = test system: SF-295
[12] = test system: SK-MEL-28
[13] = test system: SK-OV-3
[14] = test system: SNB-75
[15] = test system: SW-620
[16] = test system: HOP-62
[17] = test system: NCI-H226
[18] = test system: UO-31
[19] = test system: 786-0
[20] = test system: Malme-3M

Structure (SMILES) | GI50 [1] | GI50 [2] | GI50 [3] | GI50 [4] | GI50 [5] | GI50 [6] | GI50 [7] | GI50 [8] | GI50 [9] | GI50 [10] | GI50 [11] | GI50 [12] | GI50 [13] | GI50 [14] | GI50 [15] | GI50 [16] | GI50 [17] | GI50 [18] | GI50 [19] | GI50 [20]
CSC1=Nc2ccccc2N(C)c2c1c(-c1ccccc1)nn2C | 50.4 µM (inactive) | > 100 µM (inactive) | 38 µM (inactive) | 21.7 µM (inactive) | 42.9 µM (inactive) | 8.99 µM (inactive) | 14.1 µM (inactive) | 7.4 µM (inactive) | > 100 µM (inactive) | 12.7 µM (inactive) | 4.94 µM (inactive) | > 100 µM (inactive) | 37.3 µM (inactive) | > 100 µM (inactive) | 40.6 µM (inactive) |  |  |  |  | 
CCOP(=O)(OCC)C(Cc1c[nH]c2ccccc12)C(=O)O (centres undefined) | > 100 µM (inactive) | > 100 µM (inactive) | > 100 µM (inactive) | > 100 µM (inactive) | > 100 µM (inactive) | > 100 µM (inactive) | > 100 µM (inactive) | > 100 µM (inactive) | > 100 µM (inactive) | > 100 µM (inactive) | > 100 µM (inactive) | > 100 µM (inactive) | > 100 µM (inactive) | > 100 µM (inactive) | > 100 µM (inactive) | > 100 µM (inactive) | > 100 µM (inactive) | > 100 µM (inactive) |  | 
C/C=C/C(C#N)O[Si](C)(C)C (centres undefined) | > 100 µM (inactive) | > 100 µM (inactive) | > 100 µM (inactive) | > 100 µM (inactive) | > 100 µM (inactive) | > 100 µM (inactive) | > 100 µM (inactive) | > 100 µM (inactive) | > 100 µM (inactive) |  | > 100 µM (inactive) | > 100 µM (inactive) | > 100 µM (inactive) | > 100 µM (inactive) | > 100 µM (inactive) | > 100 µM (inactive) | > 100 µM (inactive) | > 100 µM (inactive) | > 100 µM (inactive) | > 100 µM (inactive)
CCCCCCNC(=O)C1=C(C)NC(C)=C(C(=O)NCCCCCC)C1 | > 100 µM (inactive) | > 100 µM (inactive) | > 100 µM (inactive) | 89.3 µM (inactive) | > 100 µM (inactive) | > 100 µM (inactive) | > 100 µM (inactive) | > 100 µM (inactive) | > 100 µM (inactive) | > 100 µM (inactive) | > 100 µM (inactive) | > 100 µM (inactive) | > 100 µM (inactive) | 51.9 µM (inactive) | > 100 µM (inactive) | > 100 µM (inactive) | > 100 µM (inactive) | 63.8 µM (inactive) | > 100 µM (inactive) | 
COc1ccc(CCC2NCCc3cc(OC)c(OC)cc32)cc1 (centres undefined) | > 100 µM (inactive) | > 100 µM (inactive) |  | > 100 µM (inactive) |  | > 100 µM (inactive) | > 100 µM (inactive) | > 100 µM (inactive) | > 100 µM (inactive) | > 100 µM (inactive) | > 100 µM (inactive) | > 100 µM (inactive) |  | > 100 µM (inactive) | > 100 µM (inactive) | > 100 µM (inactive) |  | 88.1 µM (inactive) | > 100 µM (inactive) | > 100 µM (inactive)
CCOC(=O)C1C(=O)CN2CCc3c([nH]c4ccccc34)C12C(=O)OCC (centres undefined) | > 100 µM (inactive) | > 100 µM (inactive) | > 100 µM (inactive) | > 100 µM (inactive) | > 100 µM (inactive) | > 100 µM (inactive) | > 100 µM (inactive) | > 100 µM (inactive) | > 100 µM (inactive) |  | > 100 µM (inactive) | > 100 µM (inactive) | > 100 µM (inactive) | > 100 µM (inactive) | > 100 µM (inactive) | > 100 µM (inactive) | > 100 µM (inactive) | > 100 µM (inactive) | > 100 µM (inactive) | > 100 µM (inactive)
Cc1ccc(NC(=O)/C(=N\Nc2ccc([N+](=O)[O-])cc2[N+](=O)[O-])C2C(=O)NC(=O)NC2=O)cc1 | 50.9 µM (inactive) | > 100 µM (inactive) | > 100 µM (inactive) | 49.5 µM (inactive) | 43.2 µM (inactive) |  | > 100 µM (inactive) | > 100 µM (inactive) | > 100 µM (inactive) | 70 µM (inactive) | 46.1 µM (inactive) | > 100 µM (inactive) | > 100 µM (inactive) | 26.7 µM (inactive) | 45.7 µM (inactive) | 27.5 µM (inactive) | > 100 µM (inactive) | 15.5 µM (inactive) | > 100 µM (inactive) | > 100 µM (inactive)
CCOC(=O)C1S(=O)(=O)OCCOS1(=O)=O | > 100 µM (inactive) | > 100 µM (inactive) | > 100 µM (inactive) | > 100 µM (inactive) | > 100 µM (inactive) | > 100 µM (inactive) | > 100 µM (inactive) | > 100 µM (inactive) |  | > 100 µM (inactive) | > 100 µM (inactive) | > 100 µM (inactive) | > 100 µM (inactive) | > 100 µM (inactive) | > 100 µM (inactive) | > 100 µM (inactive) |  | > 100 µM (inactive) | > 100 µM (inactive) | > 100 µM (inactive)
Cc1ccc(S(=O)(=O)OC(COC(=O)c2ccccc2)C(OS(=O)(=O)c2ccc(C)cc2)C(OS(=O)(=O)c2ccc(C)cc2)C(COC(=O)c2ccccc2)OS(=O)(=O)c2ccc(C)cc2)cc1 (centres undefined) | > 100 µM (inactive) | > 100 µM (inactive) | > 100 µM (inactive) | > 100 µM (inactive) | > 10 µM (inactive) | > 100 µM (inactive) | > 100 µM (inactive) | > 100 µM (inactive) |  | > 100 µM (inactive) | > 100 µM (inactive) | > 100 µM (inactive) | > 10 µM (inactive) | 29.1 µM (inactive) | > 100 µM (inactive) | > 100 µM (inactive) |  | > 100 µM (inactive) | > 100 µM (inactive) | > 100 µM (inactive)
O=C1/C(=C/c2cccs2)N=C(c2ccccc2)N1C1Nc2cc3c(cc2S1)NC(N1C(=O)/C(=C/c2cccs2)N=C1c1ccccc1)S3 (centres undefined) | 14.6 µM (inactive) | 48.6 µM (inactive) |  | 25.3 µM (inactive) | 32.1 µM (inactive) | 12.6 µM (inactive) | 17.4 µM (inactive) | 13.4 µM (inactive) | 27.7 µM (inactive) | 19.8 µM (inactive) | 60.1 µM (inactive) | 32.3 µM (inactive) |  | 25.4 µM (inactive) | 26.9 µM (inactive) | 30.8 µM (inactive) | 20.3 µM (inactive) | 35.3 µM (inactive) | 16.4 µM (inactive) | 
Oc1ccccc1C1C=C(c2ccccc2)NC(N2CCCCC2)=C1c1nc2ccccc2[nH]1 (centres undefined) | 15.7 µM (inactive) |  | 2.19 µM (inactive) | 15.2 µM (inactive) | 14.6 µM (inactive) | 13.7 µM (inactive) | 15.3 µM (inactive) | 14 µM (inactive) | 17.9 µM (inactive) | 9.57 µM (inactive) | 15.5 µM (inactive) | 15.9 µM (inactive) | 13.5 µM (inactive) | 4.57 µM (inactive) | 16.3 µM (inactive) | 14.1 µM (inactive) | 16.7 µM (inactive) | 11.1 µM (inactive) | 12.7 µM (inactive) | 15.8 µM (inactive)
CC1=C2c3c(C)ccc4ccc(C)c(c34)C2(O)C(C)C1=O (centres undefined) | 40.3 µM (inactive) | 52.1 µM (inactive) | 28.8 µM (inactive) | > 100 µM (inactive) | 49.2 µM (inactive) | 25 µM (inactive) |  | 47.2 µM (inactive) | > 100 µM (inactive) | 33 µM (inactive) |  | 84.3 µM (inactive) | 52.7 µM (inactive) | 30.8 µM (inactive) | > 100 µM (inactive) | 79.1 µM (inactive) | > 100 µM (inactive) | 21.3 µM (inactive) | 51.2 µM (inactive) | 
CC1(C)OCC[C@@H]1[Si](C)(C)C | > 100 µM (inactive) |  | > 100 µM (inactive) | > 100 µM (inactive) | > 100 µM (inactive) | 33 µM (inactive) | 53.6 µM (inactive) | 15.3 µM (inactive) | > 100 µM (inactive) | 29.6 µM (inactive) | 90.8 µM (inactive) | 84.7 µM (inactive) | > 100 µM (inactive) | 52.1 µM (inactive) | > 100 µM (inactive) |  | 70.1 µM (inactive) | 42.9 µM (inactive) | > 100 µM (inactive) | > 100 µM (inactive)
CC(=O)c1cccc(NC(=O)C(=O)C(C(=O)c2ccccc2F)C2OC(=O)c3ccccc32)c1 (centres undefined) | 54.8 µM (inactive) | 65.3 µM (inactive) | 18.6 µM (inactive) | 35.9 µM (inactive) | 74.8 µM (inactive) | 22.8 µM (inactive) | 33.8 µM (inactive) | 19.4 µM (inactive) | 64.3 µM (inactive) | 20.3 µM (inactive) | 42.6 µM (inactive) | 50.9 µM (inactive) | 35.4 µM (inactive) | 25.8 µM (inactive) | 99.5 µM (inactive) | 61.7 µM (inactive) | 19.1 µM (inactive) | 34.4 µM (inactive) |  | 
CN(C)C(=S)SCC(N)=O | > 100 µM (inactive) | > 100 µM (inactive) | > 100 µM (inactive) | > 100 µM (inactive) | > 100 µM (inactive) | > 100 µM (inactive) | > 100 µM (inactive) | > 100 µM (inactive) | > 100 µM (inactive) | > 100 µM (inactive) | > 100 µM (inactive) | > 100 µM (inactive) | > 100 µM (inactive) | < 0.01 µM (active) | > 100 µM (inactive) | > 100 µM (inactive) | 45.3 µM (inactive) |  | > 100 µM (inactive) | > 100 µM (inactive)
